Measurements as given in US20230125698A1, “APHERESIS COLUMN FOR TREATING RHEUMATOID ARTHRITIS” (UNIVERSITÉ PAUL SABATIER TOULOUSE III, priority 2020, published 2023).
Non-standard residues stand in square brackets, D forms with d. No end group written: not given here. Cit = NC(=O)NCCC[C@H](N)C(=O)O

Experiments:
[1] = tested on: anti-citrullinated peptide/protein antibodies (ACPA) in serums from AhFibA-positive rheumatoid arthritis patients; test: ELISA reactivity of rheumatoid arthritis patient serums with respect to the citrullinated peptides; format: binding, human; design: key to Reactivity profile of serum with respect to the peptide: +++: strong positive; ++: medium positive; +: weak positive; empty box: negative; conditions: for Correlation between the reactivities of the serums with respect to the different peptides (Spearman): 202 serums, peptide pairs compared; for Reactivity profile of serum with respect to the peptide: ELISA
Protocol: Serum samples were obtained from 202 rheumatoid arthritis patients positive for the “AhFibA” ELISA test, which allows to detect and titer the ACPA using the citrullinated human fibrinogen as an immunosorbent.
The antigens or immunosorbents (citrullinated fibrinogen or citrullinated and non-citrullinated peptides), solubilised in PBS (1.5 mM KH2PO4 SIGMA 795488; 7 mM K2HPO4 SIGMA P3786; 0.15M NaCl SIGMA 31434; pH 7.2) at concentrations of 5 and 10 μg/mL, are adsorbed in the microtiter plate wells (MAXISORP NUNC 2023-09) by incubation overnight at 4° C., or used in avidin-biotin system: avidin 5 μg/mL in PBS incubated overnight at 4° C. and then, after washing, biotinylated peptide at 10 μg/mL in PBS, incubated 1 h at 4° C. After blocking in PBS 2% BSA (Sigma A3059) for 1 hour at 4° C. and washing in PBS 0.1% Tween®20 (SIGMA P1379), the samples to be tested are deposited diluted 1:50 (1:100 in the Avidin-Biotin system) or at equivalent corrected dilutions, in PBS 2% BSA 2MNaCl. After washing, the secondary antibody (goat anti-human IgG Fc fragment coupled to horseradish peroxidase; Southern Biotech 2040-05) is incubated for 1 hour at 4° C. After washing, the revelation is performed with a solution of Ortho-Phenylene Diamine dihydrochloride (Sigma P2788), 0.03% H2O2 (Sigma H1009), in citrate/H3PO4 buffer pH5 (0.05 M citric acid Sigma C0759; 0.1 M Na2HPO4 Prolabo 28026292) for 5 minutes at room temperature, and then stopped with a solution of H2SO4 6N (Sigma 07208). The optical density (OD) is read at 492 nm with a Multiskan Fc plate reader (ThermoScientific).
Expression of the results of the ELISA tests: for the peptides, the variation in OD between the reactivity of the citrullinated peptide and the reactivity of the non-citrullinated peptide is taken into account, each reactivity being previously subtracted from its blank (OD in the absence of sample). This gives the following formula:
ΔDO=(DOcit−DOblank cit)−(DOnoncit−DOblank noncit) [Math 1]
The ΔDO for the peptides and the OD for the citrullinated fibrinogen are considered to express the titer of the samples tested.
The inter-assay variations are corrected for by using a range of dilutions of a pool of patient serums tested in each microtiter plate. This reference pool, named P97, was made up of 97 samples of the same volume from 97 patients with a high ACPA titer. The OD values of this internal range are compared to that of reference values where each point in the range is the average of 30 determinations previously performed from this same pool. The least squares method then allows to obtain a correction factor which is applied to all the OD values obtained on the corresponding plate. This corrected OD corresponds to the titer of the sample.
The reactivity profiles of the 202 samples of patient serums with respect to the citrullinated fibrinogen and the 4 citrullinated peptides were determined by ELISA in at least two independent assays, each being done in duplicate. For the sake of reproducibility, only the microtiter plates whose internal range required the application of a correction factor between 0.5 and 2 with respect to the reference range were considered.

[2] = tested on: anti-citrullinated peptide/protein antibodies (ACPA) in serums from AhFibA-positive rheumatoid arthritis patients; test: as above; format: binding, human; conditions: β60-74Cit-NH2 and/or Ac-α36-50Cit
[3] = serum n°1, ACPA-positive RA patient serum
[4] = serum n°6, ACPA-positive RA patient serum
[5] = serum n°10, ACPA-positive RA patient serum
[6] = serum n°16, ACPA-positive RA patient serum
[7] = serum n°17, ACPA-positive RA patient serum
[8] = serum n°22, ACPA-positive RA patient serum
[9] = serum n°25, ACPA-positive RA patient serum
[10] = serum n°29, ACPA-positive RA patient serum
[11] = serum n°41, ACPA-positive RA patient serum
[12] = serum n°64, ACPA-positive RA patient serum

Substance	Correlation between the reactivities of the serums with respect to the different peptides (Spearman) [1]	Reactivity profile of serum with respect to the peptide [1, 3]	Reactivity profile of serum with respect to the peptide [1, 4]	Reactivity profile of serum with respect to the peptide [1, 5]	Reactivity profile of serum with respect to the peptide [1, 6]	Reactivity profile of serum with respect to the peptide [1, 7]	Reactivity profile of serum with respect to the peptide [1, 8]	Reactivity profile of serum with respect to the peptide [1, 9]	Reactivity profile of serum with respect to the peptide [1, 10]	Reactivity profile of serum with respect to the peptide [1, 11]	Reactivity profile of serum with respect to the peptide [1, 12]	Reactivity of the plasmas tested to the peptide [2]	Percentage of RA serums positive (reactive in ELISA) for the peptide ([1]; 202 serums from AhFibA-positive RA patients)
GPX1VVEX2HQSACKDS (Ac-GP[Cit]VVE[Cit]HQSACKDS) [Ac-α36-50Cit, N-terminal G acetylated; X1 and X2 citrullyl residues; fibrinogen α-chain 36-50]	no correlation was found	[empty]	[empty]	[empty]	+	+	[empty]	+++	+	+++	+++	most of the plasmas tested were reactive	
VDIDIKIX1SCX2GSCS (VDIDIKI[Cit]SC[Cit]GSCS; cysteine pairing not given here) [α171-185Cit, X1 and X2 citrullyl residues; fibrinogen α-chain 171-185]	significant correlations	+	+	+	++	+++	+++	[empty]	[empty]	++	[empty]		
X1GHAKSX2PVX3GIHTS ([Cit]GHAKS[Cit]PV[Cit]GIHTS) [α621-635Cit, X1, X2 and X3 citrullyl residues; fibrinogen α-chain 621-635]	significant correlations	+	+++	[empty]	+++	+++	++	+	+++	[empty]	[empty]		
X1PAPPPISGGGYX2AX3 ([Cit]PAPPPISGGGY[Cit]A[Cit]-NH2; N-terminus assumed; SMILES CC[C@H](C)[C@H](NC(=O)[C@@H]1CCCN1C(=O)[C@@H]1CCCN1C(=O)[C@@H]1CCCN1C(=O)[C@H](C)NC(=O)[C@@H]1CCCN1C(=O)[C@@H](N)CCCNC(N)=O)C(=O)N[C@@H](CO)C(=O)NCC(=O)NCC(=O)NCC(=O)N[C@@H](Cc1ccc(O)cc1)C(=O)N[C@@H](CCCNC(N)=O)C(=O)N[C@@H](C)C(=O)N[C@@H](CCCNC(N)=O)C(N)=O) [β60-74Cit-NH2, X1, X2 citrullyl; X3 citrullyl derivative with carboxamide in place of terminal carboxyl; fibrinogen β-chain 60-74]	significant correlations	+++	+++	+++	[empty]	+++	++	++	[empty]	[empty]	+++	most of the plasmas tested were reactive	76%
